Experimental findings from patent US20240018105A1, “TROPOLONE DERIVATIVES AND TAUTOMERS THEREOF FOR IRON REGULATION IN ANIMALS” (Kinesid Therapeutics, Inc., priority 2019, published 2024) are described below.

The structures appear in SMILES notation.

The nature of data set [1]: Ligand facilitated Fe(III) efflux from liposomes. The conditions noted are these: 10 uM ligand concentration. The essentials: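 POPC:cholesterol liposomes loaded with Fe(III)-citrate (pH 7.0), used at 1 mM phosphorus with 1 mM ferrozine outside. Ligand at 40–1.25 μM final, in triplicate; absorbance at 562 nm read every 60 s for 120 min. Efflux rate k from single-phase association fit, averaged over triplicates.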

A short description of data set [2]: Mouse liver microsomal stability assay. Type of data set: in vitro ADME. An excerpt: (§1) Compounds of the present disclosure were further evaluated in standard in vitro and in vivo Absorption, Distribution, Metabolism, Excretion (ADME) and Drug Metabolism and Pharmacokinetics (DMPK) assays to assess drug profiles important for further drug development.
(§2) Such assessments included human and mouse liver microsomal stability assays as well as 6-hour mouse PK studies.

Data set [3] relates to DMT1-deficient Caco-2 cells. As to the kind of experiment: shDMT1-Caco2 55Fe transport assay. Format: cell-based. An excerpt:
Assay 2: shDMT1-Caco2 ^55Fe Transport Assay to Assess Ligand Ability in Transporting Fe (III)
Cells: DMT1-deficient Caco-2 cells (alias: “shDMT1,” or “4A” cells) were from Grillo et al. Science, 2017, and were cryopreserved in liquid nitrogen prior to use.
Reagents and supplies: ^55FeCl3 was obtained from PerkinElmer (Boston, MA). Iron(III) chloride (FeCl3) hexahydrate was obtained from Sigma. Dulbecco's Modified Eagle Medium (DMEM), fetal bovine serum (FBS), L-glutamine, MEM nonessential amino acids, penicillin-streptomycin, G418, formic acid, methanol, high-purity water, ammonium formate, dimethyl sulfoxide (DMSO) were purchased from Fisher Scientific. Propranolol, atenolol and carbutamide were obtained from Sigma-Aldrich Chemical Company (St Louis, MO). Scintillation cocktail was obtained from Research Product International Co. (Mount Prospect, IL). Stericup filter system (PES membrane, 0.22 um pore size) was purchased from Fisher Scientific. Coming item #3378 24-well transwell insert plates. Test articles: known compounds hinokitiol and deferiprone were purchased from Sigma. They are tested side by side with the small molecule ligands disclosed in this application. DMSO stocks (10 mM, which is 1,000× of the 10 μM dose level) of hinokitiol or test articles were prepared. A stock solution of 25 mM deferiprone in DMSO was prepared. The DMSO stock solutions were stored at −20° C. or below when not in use.
The growth medium was prepared according to the following table
Apical media (serum free DMEM, 10 mM MES, pH 6.5) was prepared. Apical master mix media was prepared fresh with the addition of 200 nM ^55Fe before each experiment. For the negative control propranolol and atenolol wells, 200 nM of non-radioactive iron was used.
The basolateral media was serum-free DMEM, 10 mM HEPES, 2% bovine serum albumin (BSA), pH 7.4.
For each experiment, cells were seeded into the 24-well transwell plates (0.5 mL of 50,000 cells/mL) with growth media. The basolateral companion plate was loaded with 1 mL of growth media. After 12-24 hr, both the apical and basolateral chamber were replaced with growth media. The apical media was changed 3× per week for 21-28 days, including a media change exactly 48 hr before the assay date.
On the assay day, the TEER values were measured and the average TEER values was obtained. Individual wells with TEER vaule >35% lower than the average of all wells were excluded. For the qualified wells, the apical layer (twice) and basolaterial (once) chambers were washed with PBS. The basolateral companion plate was then filled with 1 mL of basolateral media. Via addition down the side-wall of the apical well, 300 μL per well of the apical assay master mix, with the indicated dose level of test article, was added. Each dose was tested in triplicate. The plates were incubated (5% CO2 and 90% humidity at 37° C.) for the indicated timepoints. At each indicated timepoint, the basolateral supernatant was gently mixed via pipetting, and 200 μL of the basolateral supernatant was transferred to scintillation vials. To each scintillation counting vial, 5 mL of scintillation cocktail fluid was added. For each scintillation vial, the radioactivity (CPM) was determined with liquid scintillation counter LS6500. The counting time per vial was 5 min.
All raw CPM values are divided by the average value of blank DMSO solution to give a fold of change above the DMSO value. The mean and standard deviation of each compound at each concentration level and at each time point measured was calculated to give the fold change (fc) value.
For rank order compounds, the fc value of a ligand at 4 h time point is further divided by the fold change (fc) value of hinokitiol (a positive control compound) at an equimolar concentration to arrive at the FC (normalized fold of change) value. Data reported in Tables 1 and 2 is 4 hr time point FC=fc-ligand @ 3 uM/fc-hino @ 3 uM, and FC hino=1.

A short description of data set [4]: Human liver microsomal stability assay. Type of data set: in vitro ADME.
Excerpt: as §1, §2

The next data set in a line: Mouse 6-hour PK study. To be noted: in vivo.
Excerpt: as §1, §2

In the case of `O=c1cccc(-c2cncc(F)c2)cc1O` [Ex.1, 4-(5-fluoropyridin-3-yl)-2-hydroxycyclohepta-2,4,6-trien-1-one], the “Liposome Fe transport kefflux at 10 10 μM” value in data set [1] (Table 1) is 5-7.5. Besides, in data set [2] (mouse, microsomes), the half-life is greater than 2 h and the microsomal CLint is less than 11.6 µL/min/mg. Besides, the “Caco2 shDMT1 transport FC @ 3 μM, 4h” value in data set [3] (Caco-2) was 0.01-0.5. Also, in data set [4] (human, microsomes), the half-life is greater than 2 h and the microsomal CLint is less than 11.6 µL/min/mg. For the same compound, in “Mouse 6-hour PK study”, the AUC(0-t) fell in the range of 5000 to 20000 ng·h/mL, the Cmax lay in the range of 5000 to 20000 ng/mL, the half-life is less than 1.25 h and the “mouse 6-hour PK properties compared to hinokitiol” value was “one or more improved mouse 6-hour PK properties compared to hinokitiol”.
Regarding `O=c1cccc(-c2ccc(F)cn2)cc1O` [Ex.3, 4-(5-fluoropyridin-2-yl)-2-hydroxycyclohepta-2,4,6-trien-1-one], the “Liposome Fe transport kefflux at 10 10 μM” value in data set [1] (Table 1) is listed as 5-7.5. In data set [2] (mouse, microsomes), the half-life was greater than 2 h and the microsomal CLint was less than 11.6 µL/min/mg. The “Caco2 shDMT1 transport FC @ 3 μM, 4h” value in data set [3] (Caco-2) is 0.01-0.5. Besides, in data set [4] (human, microsomes), the half-life was greater than 2 h and the microsomal CLint is less than 11.6 µL/min/mg. Moreover, in the data set “Mouse 6-hour PK study”, the area under the curve AUC(0-t) fell in the range of 5000 to 20000 ng·h/mL, the Cmax is 1500 to 5000 ng/mL, the half-life lay within 1.25 to 4.99 h and the “mouse 6-hour PK properties compared to hinokitiol” value is reported as “one or more improved mouse 6-hour PK properties compared to hinokitiol”.
Consider `Cc1ccc(-c2cncc(F)c2)cc(O)c1=O` [Ex.16, 4-(5-fluoropyridin-3-yl)-2-hydroxy-7-methylcyclohepta-2,4,6-trien-1-one], for which the “Liposome Fe transport kefflux at 10 10 μM” value in data set [1] (Table 1) is 10-25. In data set [2] (mouse, microsomes), this compound returned a half-life of 1.38 h and a microsomal CLint of 16.7 µL/min/mg. Also, the “Caco2 shDMT1 transport FC @ 3 μM, 4h” value in data set [3] (Caco-2) is 0.5-1. In data set [4] (human, microsomes), this compound had a half-life greater than 2 h and a microsomal CLint of less than 11.6 µL/min/mg. In “Mouse 6-hour PK study”, the area under the curve AUC(0-t) is greater than 20000 ng·h/mL, the Cmax lay in the range of 5000 to 20000 ng/mL, the half-life lay in the range of 1.25 to 4.99 h and the “mouse 6-hour PK properties compared to hinokitiol” value was “one or more improved mouse 6-hour PK properties compared to hinokitiol”.
Consider `Cc1c(F)cncc1-c1ccc([O-])c(=O)cc1.[Na+]` [Ex.23, sodium 4-(5-fluoro-4-methylpyridin-3-yl)-7-oxocyclohepta-1,3,5-trien-1-olate], for which the “Liposome Fe transport kefflux at 10 10 μM” value in data set [1] (Table 1) was 10-25. In data set [2] (mouse, microsomes), this compound came in with a half-life greater than 2 h and a microsomal CLint of less than 11.6 µL/min/mg. The “Caco2 shDMT1 transport FC @ 3 μM, 4h” value in data set [3] (Caco-2) is listed as 0.01-0.5. Also, in data set [4] (human, microsomes), the half-life is greater than 2 h and the microsomal CLint is less than 11.6 µL/min/mg. Also, in the data set “Mouse 6-hour PK study”, the exposure AUC(0-t) was greater than 20000 ng·h/mL, the highest concentration (Cmax) is 5000 to 20000 ng/mL, the half-life fell in the range of 1.25 to 4.99 h and the “mouse 6-hour PK properties compared to hinokitiol” value is recorded as “one or more improved mouse 6-hour PK properties compared to hinokitiol”.
For the compound `O=c1ccccc(-c2ccc(F)cn2)c1O` [Ex.26, 3-(5-fluoropyridin-2-yl)-2-hydroxycyclohepta-2,4,6-trien-1-one], the “Liposome Fe transport kefflux at 10 10 μM” value in data set [1] (Table 1) was 10-25. Also, in data set [2] (mouse, microsomes), the half-life is greater than 2.5 h and the microsomal CLint was less than 25 µL/min/mg. The “Caco2 shDMT1 transport FC @ 3 μM, 4h” value in data set [3] (Caco-2) was 0.01-0.5. For the same compound, in data set [4] (human, microsomes), the half-life is greater than 2.5 h and the microsomal CLint was less than 25 µL/min/mg. Also, the “clearence half-life (t1/2) and/or intrinsic clearence (CLint) compared to hinokitiol” value in data set [4] (microsomes) is “longer clearence half-life (t1/2) and/or lower intrinsic clearence (CLint) than hinokitiol”. Besides, in “Mouse 6-hour PK study”, the AUC(0-t) lay within 1500 to 5000 ng·h/mL, the maximum concentration (Cmax) lay within 1500 to 5000 ng/mL, the half-life is 1.25 to 4.99 h and the “mouse 6-hour PK properties compared to hinokitiol” value is “one or more improved mouse 6-hour PK properties compared to hinokitiol”.
`Cc1ncc(-c2cccc(=O)c(O)c2)cn1` [Ex.31, 2-hydroxy-4-(2-methylpyrimidin-5-yl)cyclohepta-2,4,6-trien-1-one]: the “Liposome Fe transport kefflux at 10 10 μM” value in data set [1] (Table 1) is recorded as 0.1-5. Moreover, in data set [2] (mouse, microsomes), the half-life is greater than 2 h and the microsomal CLint is less than 11.6 µL/min/mg. The “Caco2 shDMT1 transport FC @ 3 μM, 4h” value in data set [3] (Caco-2) is recorded as 0.01-0.5. Moreover, in data set [4] (human, microsomes), the half-life was greater than 2 h and the microsomal CLint is less than 11.6 µL/min/mg. Besides, in the data set “Mouse 6-hour PK study”, the exposure AUC(0-t) was 1500 to 5000 ng·h/mL, the peak concentration (Cmax) lay within 1500 to 5000 ng/mL, the half-life lay within 1.25 to 4.99 h and the “mouse 6-hour PK properties compared to hinokitiol” value was “one or more improved mouse 6-hour PK properties compared to hinokitiol”.
Take `Cc1ncc(-c2cccc(=O)c(O)c2)c(C)n1` [Ex.32, 4-(2,4-dimethylpyrimidin-5-yl)-2-hydroxycyclohepta-2,4,6-trien-1-one]: in data set [1] (Table 1), the “Liposome Fe transport kefflux at 10 10 μM” value is 5-7.5. In data set [2] (mouse, microsomes), this compound returned a half-life greater than 2 h and a microsomal CLint of less than 11.6 µL/min/mg. Besides, the “Caco2 shDMT1 transport FC @ 3 μM, 4h” value in data set [3] (Caco-2) is 0.01-0.5. In data set [4] (human, microsomes), the half-life was greater than 2 h and the microsomal CLint is less than 11.6 µL/min/mg. Further, in “Mouse 6-hour PK study”, the AUC(0-t) was in the range of 5000 to 20000 ng·h/mL, the peak concentration (Cmax) fell in the range of 1500 to 5000 ng/mL, the half-life fell in the range of 1.25 to 4.99 h and the “mouse 6-hour PK properties compared to hinokitiol” value is recorded as “one or more improved mouse 6-hour PK properties compared to hinokitiol”.
`O=c1ccccc(Oc2ccc(F)cc2F)c1O` [Ex.67, 3-(2,4-difluorophenoxy)-2-hydroxycyclohepta-2,4,6-trien-1-one]: the “Liposome Fe transport Kefflux at 10 μM” value in data set [1] (Table 2) is less than 0.1. Also, the “Caco2 shDMT1 transport FC @ 3 μM, 4h” value in data set [3] (Caco-2) is on record as 0.01-0.5. Moreover, in the data set “Mouse 6-hour PK study”, the exposure AUC(0-t) was in the range of 1500 to 5000 ng·h/mL, the Cmax lay within 1500 to 5000 ng/mL, the half-life is 1.25 to 4.99 h and the “mouse 6-hour PK properties compared to hinokitiol” value was “one or more improved mouse 6-hour PK properties compared to hinokitiol”.
In the case of `O=c1ccccc(-c2cscn2)c1O` [Ex.76, 2-hydroxy-3-(thiazol-4-yl)cyclohepta-2,4,6-trien-1-one], the “Caco2 shDMT1 transport FC @ 3 μM, 4h” value in data set [3] (Caco-2) is given as 0.5-1. In the data set “Mouse 6-hour PK study”, the exposure AUC(0-t) was in the range of 500 to 1500 ng·h/mL, the Cmax fell in the range of 1500 to 5000 ng/mL, the half-life is less than 1.25 h and the “mouse 6-hour PK properties compared to hinokitiol” value is on record as “one or more improved mouse 6-hour PK properties compared to hinokitiol”.
Turning to `Cc1c(O)c(=O)ccn1C` [deferiprone, reference compound], the “Liposome Fe transport Kefflux at 10 μM” value in data set [1] (Table 1) was 0. In addition, the “Caco2 shDMT1 transport FC @ 3 μM, 4h” value in data set [3] (Caco-2) is 0.02-0.03.
`CC(C)c1cccc(=O)c(O)c1` [hinokitiol, reference compound]: the “Liposome Fe transport Kefflux at 10 μM” value in data set [1] (Table 1) and in data set [1] (Table 2) was 7.77 throughout. Also, the microsomal CLint in data set [2] (mouse liver microsomes, Table 4, read-out: Mouse CLint) turned out to be 43.4 µL/min/mg; in data set [4] (human liver microsomes, Table 4, read-out: Human CLint), 150 µL/min/mg. Further, the half-life turned out to be 0.533 h in data set [2] (mouse liver microsomes, Table 4, read-out: Mouse t1/2) and 0.153 h in data set [4] (human liver microsomes, Table 4, read-out: Human t1/2). The “Caco2 shDMT1 transport FC @ 3 μM, 4h” value in data set [3] (3 μM, 4 h, fold change normalized to hinokitiol (FC hino=1), Table 1) turned out to be 1; in data set [3] (3 μM, 4 h, fold change normalized to hinokitiol (FC hino=1), Table 2), 1.00.
